# Data as given in patent publication US12702697B2, “Compositions and methods for treatment of headache disorders and neuropathic pain” (Washington University, priority 2019, dated 2026).
# What was measured:
# [1] = tested on: Treg cells and CD3+ T cells in dura, TG and DRG; experiment: Immunohistochemistry of CD3+ T cells and EGFP+ Treg cells in dura, TG, DRG and cervical/medullary dorsal horn; format: in vivo, mouse
# Method: Tissue preparation, immunohistochemistry, and image analysis. Mice were euthanized with i.p. injection of barbiturate (200 mg/kg) and were transcardially perfused with warm 0.1 M phosphate buffered saline (pH 7.2) followed by cold 4% formaldehyde in 0.1 M phosphate buffer (pH 7.2) for fixation. Trigeminal ganglia, lumbar L4 DRG, and the tissues containing the cervical/medullary dorsal horn (from obex to C3 cervical spinal cord) were collected and sectioned at […] in the transverse plane, collected on Superfrost Plus glass slides in sequence and stored at […]
# The dura was carefully dissected from the skull using forceps and stained as whole mount. T cells were identified by the rat anti-CD3 antibody (clone 17A2, 1:200; eBioscience, San Diego, CA), and Treg cells were identified with the chicken anti-EGFP (1:1000; AVES Lab, Tigard, OR) antibody in tissues from DEREG mice. […] To quantify CD31 T cells and Treg cells on the dura, we took random, nonoverlapping images (10 per mouse) in areas adjacent to the middle meningeal artery (MMA). To quantify T cells and Treg cells in TG, DRG, and cervical/medullary dorsal horn, all cells on individual sections were counted, and the number was multiplied by 4 to obtain the total number of cells per ganglion in each mouse. […] Representative images were adjusted for contrast and brightness using the same parameter within individual experiments. No other manipulations were made to the images. Image analysis was performed with experimenters blinded to the experimental groups.
# [2] = tested on: NTG-induced skin hypersensitivity in mice; experiment: Mouse model of chronic migraine (repetitive NTG): hindpaw and facial von Frey thresholds, cheek acetone test; format: in vivo
# Method: Mouse model of chronic migraine and drug treatments: After measuring baseline nociceptive responses, mice received repetitive intraperitoneal (i.p.) injections of NTG (10 mg/kg in saline with 1% propylene glycol) or vehicle (saline with 1% propylene glycol in saline, 10 mL/kg) every 2 days for 4 or more times as described previously (Pradhan A A, et al. PAIN 2014; 155:269-74). Nocifensive behaviors were measured 2 days after each injection (before the next treatment). NTG (SDM27; Copperhead Chemical, Tamaqua, PA) was freshly diluted from the stock (10% in propylene glycol, aliquoted in airtight glass vials and stored at 4° C.) with saline for every injection. Recombinant mouse IL2 (carrier-free; Biolegend, San Diego, CA) was freshly diluted from the stock (1 mg/mL aliquots at […]) every day. Each mouse received daily i.p. injection of […] IL2 in […] saline. The control mice received daily i.p. injections of […] saline. In Treg depletion experiment, mice received 1 i.p. injection of antibodies against CD25 ([…], BP0012; BioXcell, West Lebanon, NH11) or control IgG (BP0088; BioXcell). The antibody binds to CD25 on Treg cell membrane and depletes Treg cells through Fcg receptor III-mediated antibody-dependent cellular cytotoxicity and antibody-dependent cellular phagocytosis (Setiady Y Y, et al, Eur J Immunol 2010; 40:780-6). Note that on the days that the mouse behaviors were tested, NTG, IL2 and/or antibodies were always injected after completing the behavioral tests.
# (§1) Responses to mechanical stimuli on the hindpaw. Mice were habituated in individual clear plexiglass boxes (11×11×15 cm) for 1 to 2 hours. A series of calibrated von Frey filaments was used to apply mechanical stimuli to the plantar surface of the hindpaws. The up-down paradigm was used to determine the 50% withdrawal threshold. The thresholds for both hindpaws were averaged to yield a single value for each mouse.
# Cheek acetone test. The acute nocifensive response to acetone-evoked evaporative cooling on mouse cheek was measured as previously described (Constandil L, et al. J Pain 2012; 13:579-89). The day before testing, both cheeks were shaved (6.5×12 mm) under brief anesthesia (2% isoflurane in 100% oxygen). On the test day, mice were habituated in individual plexiglass cylinders (11-cm diameter, 15-cm height) situated in front of 3-way mirrors for 1 to 2 hours. Acetone ([…]) was applied to the shaved cheeks and immediately returned mice to the cylinders. Time spent wiping the treated area was recorded by a video camera and quantified offline. For individual mice, acetone was applied alternatingly to both cheeks at 10-minute intervals, and the duration of behavior was averaged from 4 applications.
# Withdrawal responses to facial mechanical stimuli. The hair on mouse forehead (above and between 2 eyes) was shaved the day before testing. On the test day, the experimenter gently held the mouse on the palm with minimal restraint and applied the calibrated von Frey filament perpendicularly to the shaved skin, causing the filament to bend for 5 seconds. A positive response was determined by the following criteria as previously described: mouse vigorously stroked its face with the forepaw, head withdrawal from the stimulus, or head shaking (Elliott M B et al., Headache 2012; 52:966-84). The up-down paradigm was used to determine the 50% withdrawal threshold. […]
# [3] = tested on: nerve injury-induced punctate and dynamic allodynia; conditions: cited from earlier work
# [4] = tested on: NTG/NO donor- or mTBI-induced cutaneous allodynia in rodents; conditions: cited from earlier work; for persistent cephalic mechanical hypersensitivity induced by repeated isosorbide dinitrate: Dallel R, et al., Cephalalgia 2018
# [5] = tested on: sumatriptan-induced cutaneous hypersensitivity in mice; experiment: Mouse model of medication overuse headache (repeated sumatriptan); format: in vivo; conditions: daily sumatriptan 0.6 mg/kg i.p.; male and female C57BL/6J
# Method: Mouse model of medication overuse headache. After measuring baseline nociceptive responses, mice received daily i.p. injections of sumatriptan succinate (0.6 mg/kg; Fresenius Kabi, Lake Zurich, IL44). Daily ld-IL2 or saline were administered after mice received 2 sumatriptan injections. Facial and hindpaw mechanical thresholds were measured every 2 days. Note that on the days that the mouse behaviors were tested, sumatriptan and/or IL2 were always injected after completing the behavioral tests.
# as §1
# Withdrawal responses to facial mechanical stimuli. The hair on mouse forehead (above and between 2 eyes) was shaved the day before testing. On the test day, the experimenter gently held the mouse on the palm with minimal restraint and applied the calibrated von Frey filament perpendicularly to the shaved skin, causing the filament to bend for 5 seconds. A positive response was determined by the following criteria as previously described: mouse vigorously stroked its face with the forepaw, head withdrawal from the stimulus, or head shaking (Elliott M B et al., Headache 2012; 52:966-84). The up-down paradigm was used to determine the 50% withdrawal threshold.
structure (smiles),measurement,setting,value
"O=[N+]([O-])OCC(CO[N+](=O)[O-])O[N+](=O)[O-] [NTG, nitroglycerin, reference compound]",increase in total CD3+ cells in TG,[1]; repeated NTG,2 fold
same,proportion of Treg cells among total T cells in TG,[1]; repeated NTG administration,significantly reduced
same,density of CD3+ T cells in the dura surrounding the MMA or in L4 DRG,"[1]; repeated NTG, C57BL/6J",not altered
same,CD3+ cells per TG,"[1]; repeated NTG, female C57BL/6J, n=6",4135±562 cells per TG
same,reduction of the ratio of Treg cells among CD3+ T cells in mouse TG,[1]; repeated injections of NTG,50%
same,total number of EGFP+ Treg cells in TG and DRG,"[1]; repetitive NTG injections, female DEREG mice",neither was significantly altered
same,mechanical threshold at the periorbital region,"[2]; 2 days after the first NTG injection, female Swiss Webster",substantially reduced
same,50% withdrawal thresholds to von Frey filaments on the hindpaws,"[2]; NTG 10 mg/kg i.p. every 2 days for 5 times, male and female C57BL/6J",induced a progressive and sustained mechanical hypersensitivity
same,facial mechanical threshold 3 hours after systemic NTG,"[2]; NTG 10 mg/kg i.p., naive C57BL/6J, day 1",significantly reduced
same,time facial mechanical hypersensitivity was sustained by repeated NTG injections,[2]; male C57BL/6J,at least 4 weeks
same,duration of acetone-induced cheek wiping,"[2]; repeated NTG, female C57BL/6J",persistent increase
same,duration of acetone-induced cheek wiping,"[2]; repetitive NTG, female Swiss Webster",gradual increase
CN1CC[C@]23c4c5ccc(O)c4O[C@H]2[C@@H](O)C=C[C@H]3[C@H]1C5 [morphine],"nerve injury-induced punctate allodynia, early stage",[3]; <2 weeks post-injury,attenuates
same,nerve injury-induced dynamic allodynia,[3]; all stages,does not respond
same,"nerve injury-induced punctate allodynia, late stage",[3]; late stage,not late stage
NCCCC[C@H](NC(=O)[C@@H](Cc1cc(Br)c(O)c(Br)c1)NC(=O)N1CCC(N2Cc3ccccc3NC2=O)CC1)C(=O)N1CCN(c2ccncc2)CC1 [olcegepant],persistent cephalic mechanical hypersensitivity induced by repeated isosorbide dinitrate,[4],neither sumatriptan nor CGRP receptor antagonist olcegepant prevents
CC(C)NCC(O)COc1cccc2ccccc12 (stereo not drawn) [propranolol],persistent facial mechanical hypersensitivity from repeated enhancing of NO signaling,[4]; previous studies,can be blocked
"CNS(=O)(=O)Cc1ccc2[nH]cc(CCN(C)C)c2c1 [sumatriptan, sumatriptan succinate]",facial and hindpaw mechanical sensitivity,[5],persistent facial and hindpaw mechanical hypersensitivity
same,persistent cephalic mechanical hypersensitivity induced by repeated isosorbide dinitrate,[4],neither sumatriptan nor CGRP receptor antagonist olcegepant prevents
same,NTG-induced acute cutaneous allodynia and central sensitization,[4]; rodents,can be blocked
CC1(C)O[C@@H]2[C@@H](CO[C@@]3(COS(N)(=O)=O)OC(C)(C)O[C@@H]23)O1 [topiramate],NTG-enhanced behavioral responses to acetone-induced cooling of facial skin,"[4]; daily treatment, mice",can be blocked
